This note sets out measurements from patent US7064122B2, “Pancreatic lipase inhibitor compounds, their synthesis and use” (OSI Pharmaceuticals, Inc., priority 2001, dated 2006).

The structures appear in SMILES notation.

Series [1] has as its target T1, type VI-S porcine pancreatic lipase (Sus scrofa, UniProt P00591).
T1 construct: purchased Sigma type VI-S (catalogue number not given)
T1 sequence (P00591 1-450): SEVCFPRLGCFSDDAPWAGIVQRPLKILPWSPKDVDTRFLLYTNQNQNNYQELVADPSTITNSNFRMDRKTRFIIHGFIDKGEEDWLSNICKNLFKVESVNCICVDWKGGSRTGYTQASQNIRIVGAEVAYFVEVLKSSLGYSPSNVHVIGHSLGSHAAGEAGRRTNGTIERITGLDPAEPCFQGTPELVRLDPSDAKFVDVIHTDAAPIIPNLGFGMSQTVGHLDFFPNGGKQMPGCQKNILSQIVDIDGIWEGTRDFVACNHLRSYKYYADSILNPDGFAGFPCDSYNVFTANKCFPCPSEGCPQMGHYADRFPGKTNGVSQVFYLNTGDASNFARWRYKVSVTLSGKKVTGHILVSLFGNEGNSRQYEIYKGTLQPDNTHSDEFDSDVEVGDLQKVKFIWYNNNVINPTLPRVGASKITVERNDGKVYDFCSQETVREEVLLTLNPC
In words: Pancreatic lipase assay (pH-stat titration, triolein substrate). The format is biochemical. The arrangement: Ymax: unit not given here. To be noted: for k / Ymax: 7.0 nM lipase, 700 nM inhibitor, pH 8.0; for k: k fitted for the 12.5 min after inhibitor addition, Y=Ymax*(1-exp(-k*X)); for Ymax: Ymax of the fit Y=Ymax*(1-exp(-k*X)); for inhibition at 0.7 µM: 12.5 min. How it is done: The use of a pancreatic lipase assay has been described in the literature (Hadvary, P. et al. Biochem. J. (1988) 256: 357-361; Hadvary, P. et al. Biochem. J. (1991) 266:2021-2027). Pancreatic lipase activity was measured using a 718 Stat Titrino (Brinkmann) programmed to maintain a pH of 8.0 using 0.1 N NaOH. The substrate mixture (pH 8) contained 1 mM taurochenodeoxycholate (Sigma), 9 mM taurodeoxycholate (Sigma), 0.1 mM cholesterol (Sigma), 1 mM phosphatidylcholine (Sigma), 1.5% BSA, 2 mM Tris base, 100 mM NaCl, 10 mM CaCl2, and 3% triolein (Sigma). The mixture (5 mL) was emulsified via sonication at room temperature, and added to the titration vessel with rapid stirring. The Stat Titrino was turned on and lipase (7.0 nM type VI-S porcine pancreatic lipase (Sigma) dissolved in PBS) was added to the vessel. After 10 min, inhibitor (700 nM dissolved in 100% DMSO) was added and the reaction continued for an additional 12.5 min. The k values were determined for the 12.5 min after the addition of the inhibitor using a one phase exponential association equation, Y=Ymax*(1−exp(−k*X)), k values for lipase alone were 0.0004±0.0001 sec. The k values for compounds disclosed herein are >0.0004±0.0001 sec.

In turn, `CCCCCCCCNc1nc2sc(C(=O)NCC(C)(C)C)c(C)c2c(=O)o1` [Entry 58] registered a melting point of 173 to 174.5 °C. The k in series [1] is listed as 0.723 10-3.s-1.

`CCCCCCCCCCc1cc2c(=O)oc(OCCOC)nc2s1` [Entry 96, 6-Decyl-2-(2-methoxy-ethoxy)-thieno[2,3-d][1,3]oxazin-4-one] registered a melting point of 38 to 41 °C.

In the case of `CCCCCCCCOc1nc2sc(C(C)CC(C)(C)C)cc2c(=O)o1` (stereo not shown) [Entry 78, 2-Octyloxy-6-(1,3,3-trimethyl-butyl)-thieno[2,3-d][1,3]oxazin-4-one], in series [1], the Ymax was determined as 0.126, the k is given as 1.315 10-3.s-1 and the inhibition at 0.7 µM worked out at 17.9%.

For `CCCCCCCCOC(=O)c1sc2nc(Nc3ccc(Oc4ccccc4)cc3)oc(=O)c2c1C` [Entry 19, 5-Methyl-4-oxo-2-(4-phenoxy-phenylamino)-4H-thieno[2,3-d][1,3]oxazine-6-carboxylic acid octyl ester], in series [1], the k was 0.981 10-3.s-1.

Take `CCCCCCCCNc1nc2sc(C(=O)NCCCCCC)c(C)c2c(=O)o1` [Entry 27, 5-Methyl-2-octylamino-4-oxo-4H-thieno[2,3-d][1,3]oxazine-6-carboxylic acid hexylamide]: the k in series [1] is reported as 2.577 10-3.s-1.

On to `CCCCCCCCNc1nc2sc(C(=O)NCc3ccncc3)c(C)c2c(=O)o1` [Entry 55, 5-Methyl-2-octylamino-4-oxo-4H-thieno[2,3-d][1,3]oxazine-6-carboxylic acid (pyridin-4-ylmethyl)-amide], for which, in series [1], the k was 0.754 10-3.s-1.

On to `CCCCCCCCN(CCCCCCCC)c1nc2sc(C(=O)OCc3ccccc3)c(C)c2c(=O)o1` [Entry 60, 2-Dioctylamino-5-methyl-4-oxo-4H-thieno[2,3-d][1,3]oxazine-6-carboxylic acid benzyl ester], for which the k in series [1] is 0.013 10-3.s-1.

With `CCCCCCCCCCCCCCCCNC(=O)c1sc2nc(NCCCCCCCC)oc(=O)c2c1C` [Entry 30, 5-Methyl-2-octylamino-4-oxo-4H-thieno[2,3-d][1,3]oxazine-6-carboxylic acid hexadecylamide], in series [1], the k is on record as 0.433 10-3.s-1.

Turning to `CCCCCCCCCCCCNC(=O)c1sc2nc(NCCCCCCCC)oc(=O)c2c1C` [Entry 29, 5-Methyl-2-octylamino-4-oxo-4H-thieno[2,3-d][1,3]oxazine-6-carboxylic acid dodecylamide], in series [1], the k is 0.797 10-3.s-1.

Regarding `CCCCCCCCNc1nc2sc(C(=O)N(C)C)c(C)c2c(=O)o1` [Entry 22, 5-Methyl-2-octylamino-4-oxo-4H-thieno[2,3-d][1,3]oxazine-6-carboxylic acid dimethylamide], the k in series [1] is recorded as 0.537 10-3.s-1.

For `CCCCCCCNC(=O)N(CCCCCCC)c1nc2sc(C(=O)OCc3ccccc3)c(C)c2c(=O)o1` [Entry 14, 2-(1,3-Diheptyl-ureido)-5-methyl-4-oxo-4H-thieno[2,3-d][1,3]oxazine-6-carboxylic acid benzyl ester], the k in series [1] was 0.459 10-3.s-1.

With `CCCCCCCCCCCCc1cc2c(=O)oc(OCCCCCCCC)nc2s1` [Entry 88, 6-Dodecyl-2-octyloxy-thieno[2,3-d][1,3]oxazin-4-one], the inhibition at 0.7 µM in series [1] is 74.2%.

`CCCCCCCCNc1nc2sc(C(=O)NCCOc3ccccc3)c(C)c2c(=O)o1` [Entry 70, 5-Methyl-2-octylamino-4-oxo-4H-thieno(2,3-d)(1,3)oxazine-6-carboxylic acid (2-phenoxy-ethyl)-amide]: in series [1], the Ymax worked out at 0.140 and the k is on record as 1.999 10-3.s-1.

As for `CCCCCCCCCCc1cc2c(=O)oc(OCCCCCCCC)nc2s1` [Entry 86, 6-Decyl-2-octyloxythieno[2,3-d][1,3]oxazin-4-one], the inhibition at 0.7 µM in series [1] amounted to 73.6%.

On to `CCCCCCCCOc1nc2sc(CCCCCCCC)cc2c(=O)o1` [Entry 85, 6-Octyl-2-octyloxy-thieno[2,3-d][1,3]oxazin-4-one], for which, in series [1], the inhibition at 0.7 µM stood at 96.1%.

Turning to `CCCCCCCCCCc1cc2c(=O)oc(OC(C)CCCCCC)nc2s1` (stereo not shown) [Entry 90, 6-Decyl-2-(1-methylheptyloxy)thieno[2,3-d][1,3]oxazin-4-one], the inhibition at 0.7 µM in series [1] is 15%.

`CCCCCCC(C)Oc1nc2sc(C(=O)OCc3ccccc3)c(C)c2c(=O)o1` (stereo not shown) [Entry 89, 5-Methyl-2-(1-methylheptyloxy)-4-oxo-4H-thieno[2,3-d][1,3]oxazine-6-carboxylic acid benzyl ester]: the inhibition at 0.7 µM in series [1] is -14.1%.

On to `CCCCCCCCOc1nc2sc(C(=O)O)c(C)c2c(=O)o1` [Entry 11, 5-Methyl-2-octyloxy-4-oxo-4H-thieno[2,3-d][1,3]oxazine-6-carboxylic acid], for which the k in series [1] is 0.547 10-3.s-1.

For `CCCCCCCCNc1nc2sc(C(=O)NC3CCCCC3)c(C)c2c(=O)o1` [Entry 38, 5-Methyl-2-octylamino-4-oxo-4H-thieno[2,3-d][1,3]oxazine-6-carboxylic acid cyclohexylamide], in series [1], the Ymax came to 0.045 and the k was 2.173 10-3.s-1.

With `CCCCCCCCNc1nc2sc(C(=O)N3CCN(CC(=O)NC(C)C)CC3)c(C)c2c(=O)o1` [Entry 64, N-Isopropyl-2-(4-(5-methyl-2-octylamino-4-oxo-4H-thieno(2,3-d)(1,3)oxazine-6-carbonyl)-piperazin-1-yl)-acetamide], in series [1], the Ymax is recorded as 3.917 and the k was 0.176 10-3.s-1.

As for `CCCCCCCCCCc1cc2c(=O)oc(Oc3ccc(CCCC)cc3)nc2s1` [Entry 102, 2-(4-Butyl-phenoxy)-6-decyl-thieno[2,3-d][1,3]oxazin-4-one], the melting point is 55 to 58 °C.

In the case of `CCCCCCCCc1cc2c(=O)oc(OCCCC)nc2s1` [Entry 95], the inhibition at 0.7 µM in series [1] stood at 60.3%.

Consider `CCCCCCCCNc1nc2sc(C(=O)NCCCOc3ccccc3)c(C)c2c(=O)o1` [Entry 44, 5-Methyl-2-octylamino-4-oxo-4H-thieno[2,3-d][1,3]oxazine-6-carboxylic acid (3-phenoxy-propyl)-amide], for which the k in series [1] is reported as 1.667 10-3.s-1.

`CCCCCCCCNc1nc2sc(C(=O)NCCCOC)c(C)c2c(=O)o1` [Entry 73, 5-Methyl-2-octylamino-4-oxo-4H-thieno(2,3-d)(1,3)oxazine-6-carboxylic acid (3-methoxy-propyl)-amide]: in series [1], the Ymax worked out at 1.594 and the k was 0.794 10-3.s-1.

With `CCCCCCCCOc1nc2sc(C(C)CCCC(C)(C)OC)cc2c(=O)o1` (stereo not shown) [Entry 83, 6-(5-Methoxy-1,5-dimethyl-hexyl)-2-octyloxy-thieno[2,3-d][1,3]oxazin-4-one], the inhibition at 0.7 µM in series [1] worked out at 36.9%.

Take `CCCCCCCCCCCc1nc2sc(CCCCCCC)cc2c(=O)o1` [Entry 67, 6-Heptyl-2-undecyl-thieno[2,3-d][1,3]oxazin-4-one]: in series [1], the Ymax is listed as 10.973 and the k is reported as 0.064 10-3.s-1.

Turning to `CCCCCCCCNC(=O)N(CCCCCCCC)c1nc2sc(C(=O)OCc3ccccc3)c(C)c2c(=O)o1` [Entry 13, 2-(1,3-Dioctyl-ureido)-5-methyl-4-oxo-4H-thieno[2,3-d][1,3]oxazine-6-carboxylic acid benzyl ester], in series [1], the k is listed as 0.414 10-3.s-1.

In the case of `CCCCCCCOc1nc2sc(C(=O)OCc3ccccc3)c(C)c2c(=O)o1` [Entry 8, 2-Heptyloxy-5-methyl-4-oxo-4H-thieno[2,3-d][1,3]oxazine-6-carboxylic acid benzyl ester], the k in series [1] is given as 1.052 10-3.s-1.

Regarding `CCCCCCCCNc1nc2sc(C(=O)NCCOC)c(C)c2c(=O)o1` [Entry 72, 5-Methyl-2-octylamino-4-oxo-4H-thieno(2,3-d)(1,3)oxazine-6-carboxylic acid (2-methoxy-ethyl)-amide], in series [1], the Ymax turned out to be 0.185 and the k is recorded as 1.102 10-3.s-1.

Consider `CCCCCCCCOc1nc2sc(Cc3ccccc3)cc2c(=O)o1` [Entry 77, 6-Benzyl-2-octyloxythieno[2,3-d][1,3]oxazin-4-one], for which, in series [1], the Ymax is 0.482 and the k is on record as 0.392 10-3.s-1.

Consider `CCCCCCCCNc1nc2sc(C(=O)N(CCCC)CCCC)c(C)c2c(=O)o1` [Entry 36, 5-Methyl-2-octylamino-4-oxo-4H-thieno[2,3-d][1,3]oxazine-6-carboxylic acid dibutylamide], for which, in series [1], the Ymax amounted to 0.616 and the k is given as 0.146 10-3.s-1.

With `CCCCCCCCNc1nc2sc(C(=O)NCC)c(C)c2c(=O)o1` [Entry 33, 5-Methyl-2-octylamino-4-oxo-4H-thieno[2,3-d][1,3]oxazine-6-carboxylic acid ethylamide], the k in series [1] is recorded as 0.547 10-3.s-1.
